Results: PubChem BioAssay (NCI)
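Cultured in 96-well plates, cells were exposed to test compound for 48 hours across five concentrations. Abbreviation: GI50, concentration required for 50% inhibition of growth. TGI: total growth inhibition.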

Legend:
Experiment in all cases: NCI tumour cell line growth inhibition, 48 h
786-0 renal = test system: 786-0 renal
A498 renal = test system: A498 renal
A549 NSCLC = test system: A549 NSCLC
ACHN renal = test system: ACHN renal
BT-549 breast = test system: BT-549 breast
CAKI-1 renal = test system: CAKI-1 renal
CCRF-CEM leukemia = test system: CCRF-CEM leukemia
COLO 205 colon = test system: COLO 205 colon
DU-145 prostate = test system: DU-145 prostate
HCC-2998 colon = test system: HCC-2998 colon
HCT-116 colon = test system: HCT-116 colon
HCT-15 colon = test system: HCT-15 colon
HL-60(TB) leukemia = test system: HL-60(TB) leukemia
HOP-62 NSCLC = test system: HOP-62 NSCLC
HOP-92 NSCLC = test system: HOP-92 NSCLC
HS 578T breast = test system: HS 578T breast
HT29 colon = test system: HT29 colon
IGROV1 ovarian = test system: IGROV1 ovarian
K-562 leukemia = test system: K-562 leukemia
KM12 colon = test system: KM12 colon
LOX IMVI melanoma = test system: LOX IMVI melanoma
M14 melanoma = test system: M14 melanoma
MALME-3M melanoma = test system: MALME-3M melanoma
MCF7 breast = test system: MCF7 breast
MDA-MB-231 breast = test system: MDA-MB-231 breast
MDA-MB-435 = test system: MDA-MB-435
MOLT-4 leukemia = test system: MOLT-4 leukemia
NCI-H226 lung = test system: NCI-H226 lung
NCI-H23 lung = test system: NCI-H23 lung
NCI-H460 lung = test system: NCI-H460 lung
NCI-H522 lung = test system: NCI-H522 lung
NCI/ADR-RES ovarian = test system: NCI/ADR-RES ovarian
OVCAR-3 ovarian = test system: OVCAR-3 ovarian
OVCAR-4 ovarian = test system: OVCAR-4 ovarian
OVCAR-5 ovarian = test system: OVCAR-5 ovarian
OVCAR-8 ovarian = test system: OVCAR-8 ovarian
PC-3 prostate = test system: PC-3 prostate
RPMI-8226 leukemia = test system: RPMI-8226 leukemia
RXF 393 renal = test system: RXF 393 renal
SF-268 CNS = test system: SF-268 CNS
SF-295 CNS = test system: SF-295 CNS
SF-539 CNS = test system: SF-539 CNS
SK-MEL-2 melanoma = test system: SK-MEL-2 melanoma
SK-MEL-28 melanoma = test system: SK-MEL-28 melanoma
SK-MEL-5 melanoma = test system: SK-MEL-5 melanoma
SK-OV-3 ovarian = test system: SK-OV-3 ovarian
SN12C renal = test system: SN12C renal
SNB-19 CNS = test system: SNB-19 CNS
SNB-75 CNS = test system: SNB-75 CNS
SR leukemia = test system: SR leukemia
SW-620 colon = test system: SW-620 colon
T-47D breast = test system: T-47D breast
TK-10 renal = test system: TK-10 renal
U251 CNS = test system: U251 CNS
UACC-62 melanoma = test system: UACC-62 melanoma
UO-31 renal = test system: UO-31 renal

O=C(Nc1ccc2[nH]c3ccccc3c2c1)c1ccccc1Cl
GI50 (786-0 renal): 4.05 µM | TGI (786-0 renal): 51 µM | GI50 (A498 renal): 2320 nM | TGI (A498 renal): 9.19 µM | GI50 (A549 NSCLC): 4.32 µM | TGI (A549 NSCLC): > 100 µM | GI50 (ACHN renal): 4.98 µM | TGI (ACHN renal): > 100 µM | GI50 (BT-549 breast): 5.63 µM | TGI (BT-549 breast): > 100 µM | GI50 (CAKI-1 renal): 3.47 µM | TGI (CAKI-1 renal): > 100 µM | GI50 (CCRF-CEM leukemia): 3.7 µM | TGI (CCRF-CEM leukemia): > 100 µM | GI50 (COLO 205 colon): 3.5 µM | TGI (COLO 205 colon): > 100 µM | GI50 (DU-145 prostate): 6.09 µM | TGI (DU-145 prostate): > 100 µM | GI50 (HCC-2998 colon): 3.84 µM | TGI (HCC-2998 colon): 18.5 µM | GI50 (HCT-116 colon): 4.86 µM | TGI (HCT-116 colon): > 100 µM | GI50 (HCT-15 colon): 2950 nM | TGI (HCT-15 colon): > 100 µM | GI50 (HL-60(TB) leukemia): 3.07 µM | TGI (HL-60(TB) leukemia): > 100 µM | GI50 (HOP-62 NSCLC): 59.4 µM | TGI (HOP-62 NSCLC): > 100 µM | GI50 (HOP-92 NSCLC): 2840 nM | TGI (HOP-92 NSCLC): > 100 µM | GI50 (HS 578T breast): 3.84 µM | TGI (HS 578T breast): 86.8 µM | GI50 (HT29 colon): 3.78 µM | TGI (HT29 colon): > 100 µM | GI50 (IGROV1 ovarian): 8.85 µM | TGI (IGROV1 ovarian): > 100 µM | GI50 (K-562 leukemia): 2630 nM | TGI (K-562 leukemia): > 100 µM | GI50 (KM12 colon): 2320 nM | TGI (KM12 colon): 11.6 µM | GI50 (LOX IMVI melanoma): 3.41 µM | TGI (LOX IMVI melanoma): 39 µM | GI50 (M14 melanoma): 3.81 µM | TGI (M14 melanoma): > 100 µM | GI50 (MALME-3M melanoma): 4.64 µM | TGI (MALME-3M melanoma): > 100 µM | GI50 (MCF7 breast): 3.57 µM | TGI (MCF7 breast): > 100 µM | GI50 (MDA-MB-231 breast): 2960 nM | TGI (MDA-MB-231 breast): 20.4 µM | GI50 (MDA-MB-435): 969 nM | TGI (MDA-MB-435): > 100 µM | GI50 (MOLT-4 leukemia): 5.86 µM | TGI (MOLT-4 leukemia): > 100 µM | GI50 (NCI-H226 lung): 5.53 µM | TGI (NCI-H226 lung): > 100 µM | GI50 (NCI-H23 lung): 12.2 µM | TGI (NCI-H23 lung): > 100 µM | GI50 (NCI-H460 lung): 3.75 µM | TGI (NCI-H460 lung): > 100 µM | GI50 (NCI-H522 lung): 2920 nM | TGI (NCI-H522 lung): 9.66 µM | GI50 (NCI/ADR-RES ovarian): 3.64 µM | TGI (NCI/ADR-RES ovarian): > 100 µM | GI50 (OVCAR-3 ovarian): 3.43 µM | TGI (OVCAR-3 ovarian): 12.8 µM | GI50 (OVCAR-4 ovarian): 6.83 µM | TGI (OVCAR-4 ovarian): > 100 µM | GI50 (OVCAR-5 ovarian): 10.3 µM | TGI (OVCAR-5 ovarian): > 100 µM | GI50 (OVCAR-8 ovarian): 6.33 µM | TGI (OVCAR-8 ovarian): > 100 µM | GI50 (PC-3 prostate): 3.31 µM | TGI (PC-3 prostate): > 100 µM | GI50 (RPMI-8226 leukemia): 4.42 µM | TGI (RPMI-8226 leukemia): > 100 µM | GI50 (RXF 393 renal): 2490 nM | TGI (RXF 393 renal): 8.99 µM | GI50 (SF-268 CNS): 6.77 µM | TGI (SF-268 CNS): > 100 µM | GI50 (SF-295 CNS): 3.63 µM | TGI (SF-295 CNS): > 100 µM | GI50 (SF-539 CNS): 2490 nM | TGI (SF-539 CNS): 7.22 µM | GI50 (SK-MEL-2 melanoma): 5.35 µM | TGI (SK-MEL-2 melanoma): 74.8 µM | GI50 (SK-MEL-28 melanoma): 5.95 µM | TGI (SK-MEL-28 melanoma): > 100 µM | GI50 (SK-MEL-5 melanoma): 2880 nM | TGI (SK-MEL-5 melanoma): > 100 µM | GI50 (SK-OV-3 ovarian): 8.46 µM | TGI (SK-OV-3 ovarian): > 100 µM | GI50 (SN12C renal): 5.16 µM | TGI (SN12C renal): > 100 µM | GI50 (SNB-19 CNS): 8.16 µM | TGI (SNB-19 CNS): > 100 µM | GI50 (SNB-75 CNS): 2800 nM | TGI (SNB-75 CNS): 24.6 µM | GI50 (SR leukemia): 2700 nM | TGI (SR leukemia): > 100 µM | GI50 (SW-620 colon): 3.91 µM | TGI (SW-620 colon): > 100 µM | GI50 (T-47D breast): 8.21 µM | TGI (T-47D breast): > 100 µM | GI50 (TK-10 renal): 7.25 µM | TGI (TK-10 renal): > 100 µM | GI50 (U251 CNS): 4.62 µM | TGI (U251 CNS): > 100 µM | GI50 (UACC-62 melanoma): 6.53 µM | TGI (UACC-62 melanoma): > 100 µM | GI50 (UO-31 renal): 5.2 µM | TGI (UO-31 renal): > 100 µM
